In this assay the target is Beta-3 Adrenergic Receptor (Homo sapiens (Human), UniProt P13945). Briefly: HTRF cAMP antagonist assay (IC50 determination). The settings on record: CHO-K1 cells stably expressing recombinant receptor; antagonism of isoproterenol at EC90; cAMP readout. The class given is cell-based. The essentials:
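In this functional readout, recombinant CHO-K1 cells received compound, then isoproterenol at its EC90. After 1 h at room temperature, cAMP levels were determined by HTRF using an on-plate standard curve, and IC50 values were fitted.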
A general note: Time-resolved FRET reads energy transfer from a long-lived donor to a nearby acceptor.

Beta-3 Adrenergic Receptor, sequence (P13945 whole entry, species assumed): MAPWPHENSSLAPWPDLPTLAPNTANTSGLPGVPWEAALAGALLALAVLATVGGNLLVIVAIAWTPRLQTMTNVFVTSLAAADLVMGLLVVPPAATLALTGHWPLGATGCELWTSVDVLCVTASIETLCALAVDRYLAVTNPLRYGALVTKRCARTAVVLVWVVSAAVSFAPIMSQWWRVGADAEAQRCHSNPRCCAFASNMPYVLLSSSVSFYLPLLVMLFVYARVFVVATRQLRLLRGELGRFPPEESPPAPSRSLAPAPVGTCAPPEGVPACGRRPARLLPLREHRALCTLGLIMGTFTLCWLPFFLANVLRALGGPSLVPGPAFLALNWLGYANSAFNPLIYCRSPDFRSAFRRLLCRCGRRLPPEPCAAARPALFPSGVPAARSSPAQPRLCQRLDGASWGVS

For orientation: IC50 means the midpoint of a concentration-inhibition curve. Regarding `CCOc1ccc(-c2ccc(CCN)cc2)cc1S(=O)(=O)N1CCC2(CC1)C[C@H](NC[C@H](O)COc1cccc(S(=O)(=O)C3(CO)CC3)c1)CO2` [Compound 214, (S)-1-((S)-8-(4′-(2-aminoethyl)-4-ethoxybiphenyl-3-ylsulfonyl)-1-oxa-8-azaspiro[4.5]decan-3-ylamino)-3-(3-(1-(hydroxymethyl)cyclopropylsulfonyl)phenoxy)propan-2-ol], the IC50 came to 0.0367 µM.

On to `COc1ccc(S(=O)(=O)N2CCC3(CC2)C[C@H](NC[C@H](O)COc2cccc(S(=O)(=O)C4(CO)CC4)c2)CO3)cc1-c1ccc(CCN)cc1` [Compound 215, (S)-1-((S)-8-(4′-(2-aminoethyl)-6-methoxybiphenyl-3-ylsulfonyl)-1-oxa-8-azaspiro[4.5]decan-3-ylamino)-3-(3-(1-(hydroxymethyl)cyclopropylsulfonyl)phenoxy)propan-2-ol], for which the IC50 was 0.0384 µM.

With `NCc1ccc(-c2cc(S(=O)(=O)N3CCC4(CC3)C[C@@H](NC[C@H](O)COc3cccc(S(=O)(=O)C5(CO)CC5)c3)CO4)ccc2F)cc1` [Compound 216, (S)-1-((R)-8-(4′-(aminomethyl)-6-fluorobiphenyl-3-ylsulfonyl)-1-oxa-8-azaspiro[4.5]decan-3-ylamino)-3-(3-(1-(hydroxymethyl)cyclopropylsulfonyl)phenoxy)propan-2-ol], the IC50 is 0.0264 µM.

Turning to `NC1(c2ccc(-c3cc(S(=O)(=O)N4CCC5(CC4)C[C@@H](NC[C@H](O)COc4cccc(S(=O)(=O)C6(CO)CC6)c4)CO5)ccc3F)cc2)CC1` [Compound 217, (S)-1-((R)-8-(4′-(1-aminocyclopropyl)-6-fluorobiphenyl-3-ylsulfonyl)-1-oxa-8-azaspiro[4.5]decan-3-ylamino)-3-(3-(1-(hydroxymethyl)cyclopropylsulfonyl)phenoxy)propan-2-ol], the IC50 came to 0.0284 µM.

Consider `NCc1ccc(-c2cc(S(=O)(=O)N3CCC4(CC3)C[C@H](NC[C@H](O)COc3cccc(S(=O)(=O)C5(CO)CC5)c3)CO4)ccc2F)cc1` [Compound 218, (S)-1-((S)-8-(4′-(aminomethyl)-6-fluorobiphenyl-3-ylsulfonyl)-1-oxa-8-azaspiro[4.5]decan-3-ylamino)-3-(3-(1-(hydroxymethyl)cyclopropylsulfonyl)phenoxy)propan-2-ol], for which the IC50 was found to be 0.0293 µM.

For `NC1(c2ccc(-c3cc(S(=O)(=O)N4CCC5(CC4)C[C@H](NC[C@H](O)COc4cccc(S(=O)(=O)C6(CO)CC6)c4)CO5)ccc3F)cc2)CC1` [Compound 219, (S)-1-((S)-8-(4′-(1-aminocyclopropyl)-6-fluorobiphenyl-3-ylsulfonyl)-1-oxa-8-azaspiro[4.5]decan-3-ylamino)-3-(3-(1-(hydroxymethyl)cyclopropylsulfonyl)phenoxy)propan-2-ol], the IC50 was 0.0216 µM.

As to `CCOc1ccc(-c2ccc(CN)c(F)c2)cc1S(=O)(=O)N1CCC2(CC1)C[C@H](NC[C@H](O)COc1cccc(S(=O)(=O)C3(CO)CC3)c1)CO2` [Compound 220, (S)-1-((S)-8-(4′-(aminomethyl)-4-ethoxy-3′-fluorobiphenyl-3-ylsulfonyl)-1-oxa-8-azaspiro[4.5]decan-3-ylamino)-3-(3-(1-(hydroxymethyl)cyclopropylsulfonyl)phenoxy)propan-2-ol], the IC50 is 0.0275 µM.

For `O=S(=O)(c1cnc(Cl)c(Br)c1)N1CCC2(CC1)C[C@@H](NC[C@H](O)COc1cccc(S(=O)(=O)C3(CO)CC3)c1)CO2` [Compound 221, (S)-1-((R)-8-(5-bromo-6-chloropyridin-3-ylsulfonyl)-1-oxa-8-azaspiro[4.5]decan-3-ylamino)-3-(3-(1-(hydroxymethyl)cyclopropylsulfonyl)phenoxy)propan-2-ol], the IC50 stood at 0.0206 µM.

For `CN1CCN(C)c2ncc(S(=O)(=O)N3CCC4(CC3)C[C@@H](NC[C@H](O)COc3cccc(S(=O)(=O)C5(CO)CC5)c3)CO4)cc21` [Compound 222, (S)-1-((R)-8-(1,4-dimethyl-1,2,3,4-tetrahydropyrido[3,2-b]pyrazin-7-ylsulfonyl)-1-oxa-8-azaspiro[4.5]decan-3-ylamino)-3-(3-(1-(hydroxymethyl)cyclopropylsulfonyl)phenoxy)propan-2-ol], the IC50 was 0.0476 µM.

Turning to `COc1ccc(S(=O)(=O)N2CCC3(CC2)C[C@H](NC[C@H](O)COc2cccc(S(=O)(=O)C(C)(C)CO)c2)CO3)cc1-c1ccc(CN)cc1` [Compound 223, 2-(3-((S)-3-((S)-8-(4′-(aminomethyl)-6-methoxybiphenyl-3-ylsulfonyl)-1-oxa-8-azaspiro[4.5]decan-3-ylamino)-2-hydroxypropoxy)phenylsulfonyl)-2-methylpropan-1-ol], the IC50 was 0.0836 µM.

For the molecule `COc1ccc(S(=O)(=O)N2CCC3(CC2)C[C@H](NC[C@H](O)COc2cccc(S(=O)(=O)C(C)(C)CO)c2)CO3)cc1-c1ccc(C2(N)CC2)cc1` [Compound 224, 2-(3-((S)-3-((S)-8-(4′-(1-aminocyclopropyl)-6-methoxybiphenyl-3-ylsulfonyl)-1-oxa-8-azaspiro[4.5]decan-3-ylamino)-2-hydroxypropoxy)phenylsulfonyl)-2-methylpropan-1-ol], the IC50 amounted to 0.0732 µM.

As for `COc1ccc(S(=O)(=O)N2CCC3(CC2)C[C@H](NC[C@H](O)COc2cccc(S(=O)(=O)C4(CO)CC4)c2)CO3)cc1-c1ccc(C2(N)CC2)cc1` [Compound 225, (S)-1-((S)-8-(4′-(1-aminocyclopropyl)-6-methoxybiphenyl-3-ylsulfonyl)-1-oxa-8-azaspiro[4.5]decan-3-ylamino)-3-(3-(1-(hydroxymethyl)cyclopropylsulfonyl)phenoxy)propan-2-ol], the IC50 was 0.0331 µM.

Regarding `CCOc1ccc(-c2ccc(CN)cc2)cc1S(=O)(=O)N1CCC2(CC1)C[C@H](NC[C@H](O)COc1cccc(S(=O)(=O)CC)c1)CO2` [Compound 226, (S)-1-((S)-8-(4′-(aminomethyl)-4-ethoxybiphenyl-3-ylsulfonyl)-1-oxa-8-azaspiro[4.5]decan-3-ylamino)-3-(3-(ethylsulfonyl)phenoxy)propan-2-ol], the IC50 is 0.0125 µM.

Regarding `COc1ccc(S(=O)(=O)N2CCC3(CC2)C[C@H](NC[C@H](O)COc2cccc(S(=O)(=O)C4CC4)c2)CO3)cc1-c1ccc(CN)cc1` [Compound 227, (S)-1-((S)-8-(4′-(aminomethyl)-6-methoxybiphenyl-3-ylsulfonyl)-1-oxa-8-azaspiro[4.5]decan-3-ylamino)-3-(3-(cyclopropylsulfonyl)phenoxy)propan-2-ol], the IC50 was found to be 0.0179 µM.

With `COc1c(-c2ccc(CN)cc2)cccc1S(=O)(=O)N1CCC2(CC1)C[C@H](NC[C@H](O)COc1cccc(S(=O)(=O)C3CC3)c1)CO2` [Compound 228, (S)-1-((S)-8-(4′-(aminomethyl)-2-methoxybiphenyl-3-ylsulfonyl)-1-oxa-8-azaspiro[4.5]decan-3-ylamino)-3-(3-(cyclopropylsulfonyl)phenoxy)propan-2-ol], the IC50 was 0.0291 µM.

Turning to `COc1cc(-c2ccc(CN)cc2)cc(S(=O)(=O)N2CCC3(CC2)C[C@H](NC[C@H](O)COc2cccc(S(=O)(=O)C4CC4)c2)CO3)c1` [Compound 229, (S)-1-((S)-8-(4′-(aminomethyl)-5-methoxybiphenyl-3-ylsulfonyl)-1-oxa-8-azaspiro[4.5]decan-3-ylamino)-3-(3-(cyclopropylsulfonyl)phenoxy)propan-2-ol], the IC50 is 0.0116 µM.

For `CCOc1ccc(-c2ccc(CN)cc2)cc1S(=O)(=O)N1CCC2(CC1)C[C@H](NC[C@H](O)COc1cccc(S(=O)(=O)COC)c1)CO2` [Compound 230, (S)-1-((S)-8-(4′-(aminomethyl)-4-ethoxybiphenyl-3-ylsulfonyl)-1-oxa-8-azaspiro[4.5]decan-3-ylamino)-3-(3-(methoxymethylsulfonyl)phenoxy)propan-2-ol], the IC50 was 0.015 µM.

As for `CCOc1ccc(-c2ccc(CN)cc2)cc1S(=O)(=O)N1CCC2(CC1)C[C@H](NC[C@H](O)COc1cccc(S(C)(=O)=O)c1)CO2` [Compound 231, (S)-1-((S)-8-(4′-(aminomethyl)-4-ethoxybiphenyl-3-ylsulfonyl)-1-oxa-8-azaspiro[4.5]decan-3-ylamino)-3-(3-(methylsulfonyl)phenoxy)propan-2-ol], the IC50 was 0.0196 µM.

In the case of `CCOc1ccc(-c2ccc(CN)cc2)cc1S(=O)(=O)N1CCC2(CC1)C[C@H](NC[C@H](O)COc1cccc(S(=O)(=O)C(C)C)c1)CO2` [Compound 232, (S)-1-((S)-8-(4′-(aminomethyl)-4-ethoxybiphenyl-3-ylsulfonyl)-1-oxa-8-azaspiro[4.5]decan-3-ylamino)-3-(3-(isopropylsulfonyl)phenoxy)propan-2-ol], the IC50 was 0.0166 µM.

As to `CC(F)S(=O)(=O)c1cccc(OC[C@@H](O)CN[C@H]2COC3(CCN(S(=O)(=O)c4cnc5ccccc5c4)CC3)C2)c1` (stereo partly drawn) [Compound 233, (2S)-1-(3-(1-fluoroethylsulfonyl)phenoxy)-3-((R)-8-(quinolin-3-ylsulfonyl)-1-oxa-8-azaspiro[4.5]decan-3-ylamino)propan-2-ol], the IC50 is 0.00972 µM.

For `CC(F)S(=O)(=O)c1cccc(OC[C@@H](O)CN[C@H]2COC3(CCN(S(=O)(=O)c4ccc5ncccc5c4)CC3)C2)c1` (stereo partly drawn) [Compound 234, (2S)-1-(3-(1-fluoroethylsulfonyl)phenoxy)-3-((R)-8-(quinolin-6-ylsulfonyl)-1-oxa-8-azaspiro[4.5]decan-3-ylamino)propan-2-ol], the IC50 worked out at 0.0102 µM.

For `CC(F)S(=O)(=O)c1cccc(OC[C@@H](O)CN[C@H]2COC3(CCN(S(=O)(=O)c4cnc5c(c4)N(C)CCO5)CC3)C2)c1` (stereo partly drawn) [Compound 235, (2S)-1-(3-(1-fluoroethylsulfonyl)phenoxy)-3-((R)-8-(1-methyl-2,3-dihydro-1H-pyrido[2,3-b][1,4]oxazin-7-ylsulfonyl)-1-oxa-8-azaspiro[4.5]decan-3-ylamino)propan-2-ol], the IC50 stood at 0.015 µM.

These data come from patent US10927123B2, “Modulators of the beta-3 adrenergic receptor useful for the treatment or prevention of disorders related thereto” (Arena Pharmaceuticals, Inc., priority 2016, dated 2021).
